# According to ChEMBL document CHEMBL4052781, “Discovery and structure-activity relationship of auriculatone: A potent hepatoprotective agent against acetaminophen-induced liver injury” (Bioorg Med Chem Lett, 2017):
# Active and inactive are the calls of the source. No cut-off for these calls is given here.
# Experiments:
# [1] = tested on: L02; assay: Hepatoprotective activity against APAP-induced cell injury in human HL-7702 cells assessed as increase in survival rate at 10 uM pre-incubated for 24 hrs before APAP addition and measured 6 hrs post APAP challenge by MTT assay; assay type: functional, cell-based
# [2] = target: CYP3A4 (Homo sapiens, UniProt P08684); assay: Inhibition of CYP3A4 in human HL-7702 cells assessed as assessed as remaining enzyme activity by measuring reduction in metabolic conversion of nifedipine to dehydronifedipine at 10 uM by LC-MS/MS method; assay type: ADME, cell-based; conditions: probe nifedipine, read-out: Activity
# [3] = tested on: L02; assay: Hepatoprotective activity against APAP-induced cell injury in human HL-7702 cells assessed as survival rate at 5 uM pre-incubated for 24 hrs before APAP addition and measured 6 hrs post APAP challenge by MTT assay (reference value: 60.49 +/- 0.28%); assay type: functional; conditions: read-out: Survival
# [4] = tested on: L02; assay: Hepatoprotective activity against APAP-induced cell injury in human HL-7702 cells assessed as increase in survival rate at 0.1 uM pre-incubated for 24 hrs before APAP addition and measured 6 hrs post APAP challenge by MTT assay; assay type: functional, cell-based
# [5] = target: Cytochrome P450 3A4 (Homo sapiens, UniProt P08684); assay: Inhibition of CYP3A4 in human HL-7702 cells assessed as reduction in metabolic conversion of nifedipine to dehydronifedipine by LC-MS/MS method; assay type: ADME, cell-based
# [6] = tested on: L02; assay: Hepatoprotective activity against APAP-induced cell injury in human HL-7702 cells assessed as survival rate at 10 uM pre-incubated for 24 hrs before APAP addition and measured 6 hrs post APAP challenge by MTT assay (reference value: 60.49 +/- 0.28%); assay type: functional; conditions: read-out: Survival
# [7] = tested on: L02; assay: Hepatoprotective activity against APAP-induced cell injury in human HL-7702 cells assessed as survival rate at 0.625 uM pre-incubated for 24 hrs before APAP addition and measured 6 hrs post APAP challenge by MTT assay (reference value: 60.49 +/- 0.28%); assay type: functional; conditions: read-out: Survival
# [8] = tested on: L02; assay: Hepatoprotective activity against APAP-induced cell injury in human HL-7702 cells assessed as survival rate at 10 uM pre-incubated for 24 hrs before APAP addition and measured 6 hrs post APAP challenge by MTT assay (reference value: 59.13%); assay type: functional; conditions: read-out: Survival
# [9] = tested on: L02; assay: Hepatoprotective activity against APAP-induced cell injury in human HL-7702 cells assessed as increase in survival rate at 1 uM pre-incubated for 24 hrs before APAP addition and measured 6 hrs post APAP challenge by MTT assay; assay type: functional, cell-based
# [10] = tested on: L02; assay: Hepatoprotective activity against APAP-induced cell injury in human HL-7702 cells assessed as survival rate at 1.25 uM pre-incubated for 24 hrs before APAP addition and measured 6 hrs post APAP challenge by MTT assay (reference value: 60.49 +/- 0.28%); assay type: functional; conditions: read-out: Survival
# [11] = tested on: L02; assay: Effect on APAP-induced depletion of GSH levels in human HL-7702 cells assessed as GSH level at 0.1 uM by colorimetric method (reference value: 59.68 +/- 1.16 au); assay type: functional
# [12] = tested on: L02; assay: Effect on APAP-induced depletion of GSH levels in human HL-7702 cells assessed as GSH level at 1 uM by colorimetric method (reference value: 59.68 +/- 1.16 au); assay type: functional
# [13] = tested on: L02; assay: Effect on APAP-induced depletion of GSH levels in human HL-7702 cells assessed as GSH level at 10 uM by colorimetric method (reference value: 59.68 +/- 1.16 au); assay type: functional
# [14] = tested on: L02; assay: Hepatoprotective activity against APAP-induced cell injury in human HL-7702 cells assessed as survival rate at 2.5 uM pre-incubated for 24 hrs before APAP addition and measured 6 hrs post APAP challenge by MTT assay (reference value: 60.49 +/- 0.28%); assay type: functional; conditions: read-out: Survival
# Sequence of CYP3A4 (P08684 whole entry): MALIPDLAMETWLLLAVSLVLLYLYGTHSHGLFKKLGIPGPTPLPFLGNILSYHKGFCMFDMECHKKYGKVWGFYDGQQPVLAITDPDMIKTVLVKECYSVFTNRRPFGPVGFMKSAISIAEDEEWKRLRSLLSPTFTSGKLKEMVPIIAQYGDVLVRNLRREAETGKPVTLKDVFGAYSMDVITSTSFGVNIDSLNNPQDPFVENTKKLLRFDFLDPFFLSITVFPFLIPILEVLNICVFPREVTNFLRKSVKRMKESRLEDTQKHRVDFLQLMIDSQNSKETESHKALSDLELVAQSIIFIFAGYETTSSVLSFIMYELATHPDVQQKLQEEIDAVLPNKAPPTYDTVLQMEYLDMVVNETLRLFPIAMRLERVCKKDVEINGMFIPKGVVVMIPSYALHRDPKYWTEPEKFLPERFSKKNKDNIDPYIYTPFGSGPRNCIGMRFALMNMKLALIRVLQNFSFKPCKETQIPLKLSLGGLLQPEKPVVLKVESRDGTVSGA
# Sequence of Cytochrome P450 3A4 (P08684 whole entry): as above
Structure (SMILES),Activity [1],Activity [4],viability at 10 µM [8] [%],further results
CC1(C)CC[C@]2(C(=O)O)CC[C@]3(C)C(=CC[C@@H]4[C@@]5(C)CCC(=O)C(C)(C)[C@@H]5CC[C@]43C)[C@@H]2C1,Active,,,
CC1(C)CC[C@H]2C(=O)C[C@]3(C)C(=CC[C@@H]4[C@@]5(C)CC[C@H](O)C(C)(C)[C@@H]5CC[C@]43C)[C@@H]2C1,,inactive,78.3 to 80,activity at 10 µM [2]: 66%; viability at 5 µM [3]: 76%; Activity [5]: Dose-dependent effect; viability at 10 µM [6]: 80.1%; viability at 0.625 µM [7]: 66.8%; Activity [9]: Active; viability at 1.25 µM [10]: 68.6%; Activity [11]: 55.93 a.u.; Activity [12]: 55.62 a.u.; Activity [13]: 54.37 a.u.; viability at 2.5 µM [14]: 74.5%
CC(=O)O[C@H]1CC[C@]2(C)[C@H]3CC=C4[C@@H]5CC(C)(C)CC[C@H]5C(=O)C[C@@]4(C)[C@]3(C)CC[C@H]2C1(C)C,Active,inactive,67.1,
CC(=O)N[C@@H](CS)C(=O)O [ACETYLCYSTEINE],Active,,,viability at 10 µM [6]: 82.3%; Activity [13]: 102.49 a.u.
CC1(C)CC[C@]2(C(=O)O)CC[C@]3(C)C(=C2C1)C=C[C@@H]1[C@@]2(C)CC[C@H](O)C(C)(C)[C@@H]2CC[C@]13C,Active,,,
CC1(C)CC[C@H]2[C@H](O)C[C@]3(C)C(=CC[C@@H]4[C@@]5(C)CC[C@H](O)C(C)(C)[C@@H]5CC[C@]43C)[C@@H]2C1,Active,inactive,65.5,
CC1(C)CC[C@]2(CO)CC[C@]3(C)C(=CC[C@@H]4[C@@]5(C)CC[C@H](O)C(C)(C)[C@@H]5CC[C@]43C)[C@@H]2C1,Active,,,
CC1(C)CC[C@]2(C(=O)O)CC[C@]3(C)C(=CC(=O)[C@@H]4[C@@]5(C)CC[C@H](O)C(C)(C)[C@@H]5CC[C@]43C)[C@@H]2C1,Active,,,
CC1(C)CC[C@]2(C(=O)O)CC[C@]3(C)C(=CC[C@@H]4[C@@]5(C)CC[C@H](O)C(C)(C)[C@@H]5CC[C@]43C)[C@@H]2C1 [OLEANOLIC_ACID],,,68.5,
CC1(C)CC[C@H]2[C@@H](O)C[C@]3(C)C(=CC[C@@H]4[C@@]5(C)CC[C@H](O)C(C)(C)[C@@H]5CC[C@]43C)[C@@H]2C1,Active,inactive,62.9,
CC1(C)CC[C@H]2C(=O)C[C@]3(C)C(=CC[C@@H]4[C@@]5(C)CCC(=O)C(C)(C)[C@@H]5CC[C@]43C)[C@@H]2C1,Active,inactive,71.2,Activity [9]: Active
CC1(C)CC[C@H]2CC[C@]3(C)C(=CC[C@@H]4[C@@]5(C)CC[C@H](O)C(C)(C)[C@@H]5CC[C@]43C)[C@@H]2C1,Active,inactive,71.6,Activity [9]: Active
CC1(C)CC[C@H]2C(=O)C[C@]3(C)[C@@]4(O[C@@H]4C[C@@H]4[C@@]5(C)CC[C@H](O)C(C)(C)[C@@H]5CC[C@]43C)[C@@H]2C1,Active,inactive,65.7,
CC1(C)CC[C@@]23CC[C@@]4(C)[C@]5(C)CC[C@H]6C(C)(C)[C@@H](O)CC[C@]6(C)C5=CC(=O)[C@]4(OC2=O)[C@@H]3C1,Active,,,
CC1(C)CC[C@@H]2C(=O)C[C@]3(C)C(=CC[C@@H]4[C@@]5(C)CC[C@H](O)C(C)(C)[C@@H]5CC[C@]43C)[C@@H]2C1,,,76 to 80,
CC1(C)CC[C@]2(C(=O)O)[C@H](O)C[C@]3(C)C(=CC[C@@H]4[C@@]5(C)CC[C@H](O)C(C)(C)[C@@H]5CC[C@]43C)[C@@H]2C1,Active,,,
CC1(C)CC[C@]2(C(=O)O)CC[C@]3(C)C(=CC=C4[C@@]5(C)CC[C@H](O)C(C)(C)[C@@H]5CC[C@]43C)[C@@H]2C1,Active,,,
